Experimental data taken from EP2342182B1 (H. Lundbeck A/S, priority 2008, dated 2010).

How the values were obtained:
[1] = target: T1, human NK3 receptor (Homo sapiens, UniProt P29371); assay: NK3 receptor efficacy and potency assay (FLIPR Calcium 4); format: cell-based; details: read-out: Potency (cIC50/nM)
T1 construct: expressed in transfected cells; membranes prepared from them
T1 sequence (P29371 1-465): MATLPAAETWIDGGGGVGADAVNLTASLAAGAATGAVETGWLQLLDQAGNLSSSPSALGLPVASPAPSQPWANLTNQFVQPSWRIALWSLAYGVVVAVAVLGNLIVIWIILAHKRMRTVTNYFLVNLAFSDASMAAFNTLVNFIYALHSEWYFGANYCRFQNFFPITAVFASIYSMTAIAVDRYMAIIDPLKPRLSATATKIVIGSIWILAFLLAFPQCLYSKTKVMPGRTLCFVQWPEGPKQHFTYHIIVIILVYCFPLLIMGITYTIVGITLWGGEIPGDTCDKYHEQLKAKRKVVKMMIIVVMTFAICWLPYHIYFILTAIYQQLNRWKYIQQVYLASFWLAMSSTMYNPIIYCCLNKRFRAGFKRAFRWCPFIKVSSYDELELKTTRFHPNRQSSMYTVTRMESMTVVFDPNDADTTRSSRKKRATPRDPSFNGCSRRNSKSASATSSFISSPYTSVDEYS
Procedure: Example 13 NK3 receptor efficacy and potency assay
BHK cells stably expressing the human NK3 receptor were seeded in 100 µl media in black walled clear-base 96-wells plates (Costar) aiming at a confluency of 95-100% at the day of assay. The assay was performed according to the FLIPR Calcium 4 Assay kit (Molecular Devices). At the day of the assay, the media was removed and the cells were washed once with the HBSS buffer (Hanks BSS buffer, pH 7,4 containing 20 mM Hepes) before 100 µl of a solution of the calcium assay reagent dissolved in the HBSS buffer containing 2,5 mM probinicid was added to the cells. The plates were incubated for 60 min at 34°C, 10% CO2 before use in the FLIPR for examination of fluorescence.
For efficacy and potency evaluation of compounds, these were diluted in HBSS buffer prior to test. For test of agonist activity, 25 µl of the diluted compound solution was added and the plate was analyzed for 5 minutes in the FLIPR. For test of antagonist activity, the plate was incubated for another 45 minutes before addition of 25 µl of the EC85 concentration ofNKB (app. 4 nM) as described above. The plates were subsequently analyzed for 5 minutes before the assay was terminated. The maximal increase in fluorescence over background following each ligand addition was determined.

[2] = target: T1, human NK3 receptor; assay: NK3 receptor binding assay (SPA-based competition binding with 125I-NKB); details: read-out: Affinity (Ki/nM); note: competition with app 0.02 nM 125I-NKB
Procedure: Example 12 NK3 receptor binding assay
Membranepreparation: BHK cells stably expressing the human NK3 receptor were seeded in harvesting plates in Dulbeccos MEM containing GlutaMax (862 mg/l), 1mM sodium pyruvate, 10% fetal calf serum, 1% Pen/Strep, 1 mg/ml G418 and were grown at 34 °C in a humidified atmosphere containing 10% CO2. To increase receptor expression, 10 µM trichotatin A was added to the media 24 hours before harvest of the cells at a confluency of app 90%. Prior to the harvesting, the cells were washed twice with PBS without Mg^2+ og Ca^2+ and subsequently scrapped of in 10 ml PBS pr harvesting plate. The cells suspension were centrifuged at 1500xG in three minutes before resuspension in 15 mM Tris-HCl pH 7,5 buffer containing 2 mM MgCl2; 0,3 mM EDTA and 1 mM EGTA (buffer A). The cell suspention was homogenised and subsequently centrifuged at 40000xG in 30 minutes. The membrane-pellet was resuspended in buffer A containing 250 mM sucrose, alliquoted and stored at ― 80 °C.
Affinity assay description: The assay was performed as a SPA-based competition-binding assay in a 50 mM Tris pH 7.4 assay buffer containing 120 mM NaCl, 3 mM MnCl2, 40 µg/ml bacitracin, 2 µg/ml Chymostatin, 1 µg/ml Phosphoramidon and 4 µg/ml Leupeptin. […] The assay plate was subsequently under agitation incubated for 90 min at RT. The plate was centrifugated 10 minutes at 500xG and counted in a topcounter 5 minuttes pr well.
The total binding, which comprised less than 5 % of added radioligand, was defined using assay buffer whereas the non-specific binding was defined in the presence of 1 µM osanetant. The non-specific binding constituted app 5 % of the total binding.

Question: Which results are given for `CC[C@H](NC(=O)c1c(C)n(CCSC)c(=O)c2ccccc12)c1ccccc1` [Example 1q, 3-Methyl-2-(2-methylsulfanyl-ethyl)-1-oxo-1,2-dihydro-isoquinoline-4-carboxylic acid ((S)-1-phenyl-propyl)-amide]?
Answer: IC50 [1]: 440 nM; Ki [2]: 200 nM

Question: How did the IC50 [1] turn out when `CCCn1c(CN2CCNCC2)c(C(=O)N[C@H](c2cccc(F)c2)C2CCC2)c2cccc(F)c2c1=O` [Example 6b, 8-Fluoro-1-oxo-3-piperazin-1-ylmethyl-2-propyl-1,2-dhydro-isoquinoline-4-carboxylic acid [(S)-cyclobutyl-(3-fluoro-phenyl)-methyl]-amide] was run?
Answer: The IC50 was 18 nM.

Question: And the Ki [2]?
Answer: Its Ki is 6.6 nM.

Question: Which results are given for `CCCn1c(CN2CCNCC2)c(C(=O)N[C@H](c2cccc(F)c2)C2CC2)c2cccc(F)c2c1=O` [Example 6a, 8-Fluoro-1-oxo-3-piperazin-1-ylmethyl-2-propyl-1,2-dihydro-isoquinoline-4-carboxylic acid [(S)-cyclopropyl-(3-fluoro-phenyl)-methyl]-amide]?
Answer: IC50 [1]: 7 nM; Ki [2]: 13 nM

Question: How did the IC50 [1] turn out when `CC[C@H](NC(=O)c1c(C)n(NCC(C)(C)C)c(=O)c2ccccc12)c1ccccc1` [Example 2e, 2-(2,2-Dimethyl-propylamino)-3-methyl-1-oxo-1,2-dihydro-isoquinoline-4-carboxylic acid ((S)-1-phenyl-propyl)-amide] was run?
Answer: The IC50 was 580 nM.

Question: And the Ki [2]?
Answer: Its Ki is 180 nM.

Question: What does the source list for `Cc1c(C(=O)N[C@H](c2cccc(F)c2)C2CCC2)c2cccc(F)c2c(=O)n1CCO` [Example 4p, 8-Fluoro-2-(2-hydroxy-ethyl)-3-methyl-1-oxo-1,2-dihydro-isoquinoline-4-carboxylic acid [(S)-cyclobutyl-(3-fluoro-phenyl)-methyl]-amide]?
Answer: IC50 [1]: 380 nM; Ki [2]: 160 nM

Question: `Cc1c(C(=O)N[C@H](c2ccccc2)C2CC2)c2cccc(F)c2c(=O)n1NCC(C)C` [Example 2j, 8-Fluoro-2-isobutylamino-3-methyl-1-oxo-1,2-dihydro-isoquinoline-4-carboxylic acid ((S)-cyclopropyl-phenyl-methyl)-amide] was tested. Which Ki [2] did it give?
Answer: Its Ki is 23 nM.

Question: Which results are given for `Cc1c(C(=O)N[C@H](c2cccc(F)c2)C2CCC2)c2cccc(F)c2c(=O)n1C[C@H]1CCCN1` [Example 5d, 8-Fluoro-3-methyl-1-oxo-2-(R)-1pyrrolidin-2-ylmethyl-1,2-dihydro-isoquinoline-4-carboxylic acid [(S)-cyclobutyl-(3-fluoro-phenyl)-methyl]-amide]?
Answer: IC50 [1]: 16 nM; Ki [2]: 25 nM

Question: What does the source list for `CCCn1c(CN2CCCC2=O)c(C(=O)N[C@H](c2cccc(F)c2)C2CC2)c2cccc(F)c2c1=O` [Example 6e, 8-Fluoro-1-oxo-3-(2-oxo-pyrrolidin-1-ylmethyl)-2-propyl-1,2-dihydro-isoquinoline-4-carboxylic acid [(S)-cyclopropyl-(3-fluoro-phenyl)-methyl]-amide]?
Answer: IC50 [1]: 21 nM; Ki [2]: 9.8 nM

Question: What does the source list for `CC[C@H](NC(=O)c1c(C)n(NCC(C)C)c(=O)c2ccccc12)c1ccccc1` [Example 2d, 2-Isobutylamino-3-methyl-1-oxo-1,2-dihydro-isoquinoline-4-carboxylic acid ((S)-1-phenyl-propyl)-amide]?
Answer: IC50 [1]: 230 nM; Ki [2]: 46 nM

Question: How did the IC50 [1] turn out when `CCNn1c(C)c(C(=O)N[C@H](c2cccc(F)c2)C2CC2)c2cccc(F)c2c1=O` [Example 2p, 2-Ethylamino-8-fluoro-3-methyl-1-oxo-1,2-dihydro-isoquinoline-4-carboxylic acid [(S)-cyclopropyl-(3-fluoro-phenyl)-methyl]-amide] was run?
Answer: The IC50 was 27 nM.

Question: And the Ki [2]?
Answer: The Ki was 12 nM.

Question: Which IC50 [1] does the source give for `Cc1c(C(=O)NC(c2cccc(F)c2)C2CCC2)c2cccc(F)c2c(=O)n1C1CCOC1` [Example 4r, 8-Fluoro-3-methyl-1-oxo-2-(S)-tetrahydro-furan-3-yl-1,2-dihydro-isoquinoline-4-carboxylic acid [(S)-cyclobutyl-(3-fluoro-phenyl)-methyl]-amide] here?
Answer: The IC50 was 390 nM.

Question: With `Cc1c(C(=O)N[C@H](c2cccc(F)c2)C2CC2)c2cccc(F)c2c(=O)n1[C@@H]1CCNC1` [Example 5g, 8-Fluoro-3-methyl-1-oxo-2-(R)-1-pyrrolidin-3-yl-1,2-dihydro-isoquinoline-4-carboxylic acid [(S)-cyclopropyl-(3-fluoro-phenyl)-methyl]-amide] as the molecule, how does the IC50 [1] read?
Answer: The IC50 was 910 nM.

Question: How did the IC50 [1] turn out when `Cc1c(C(=O)N[C@H](c2cccc(F)c2)C2CC2)c2cccc(F)c2c(=O)n1C[C@@H]1CCCN1C` [Example 7a, 8-Fluoro-3-methyl-2-((S)-1-methyl-pyrrolidin-2-ylmethyl)-1-oxo-1,2-dihydro-isoquinoline-4-carboxylic acid [(S)-cyclopropyl-(3-fluoro-phenyl)-methyl]-amide] was run?
Answer: Its IC50 is 130 nM.

Question: And the Ki [2]?
Answer: Its Ki is 78 nM.

Question: What does the source list for `CC[C@H](NC(=O)c1c(C)n(C2CCCC2)c(=O)c2ccccc12)c1ccccc1` [Example 1a, 2-Cyclopentyl-3-methyl-1-oxo-1,2-dihydro-isoquinoline-4-carboxylic acid ((S)-1-phenylpropyl)-amide]?
Answer: IC50 [1]: 570 nM; Ki [2]: 310 nM

Question: What does the source list for `COCCn1c(C)c(C(=O)N[C@H](c2cccc(F)c2)C2CC2)c2cccc(F)c2c1=O` [Example 4f, 8-Fluoro-2-(2-methoxy-ethyl)-3-methyl-1-oxo-1,2-dihydro-isoquinoline-4-carboxylic acid [(S)-cyclopropyl-(3-fluoro-phenyl)-methyl]-amide]?
Answer: IC50 [1]: 230 nM; Ki [2]: 76 nM

Question: With `O=C(N[C@H](c1cccc(F)c1)C1CC1)c1c(CN2CCCC2=O)n(CCC(F)(F)F)c(=O)c2c(F)cccc12` [Example 4l, 8-Fluoro-1-oxo-3-(2-oxo-pyrrolidin-1-ylmethyl)-2-(3,3,3-trifluoro-propyl)-1,2-dihydro-isoquinoline-4-carboxylic acid [(S)-cyclopropyl-(3-fluoro-phenyl)-methyl]-amide] as the molecule, how does the IC50 [1] read?
Answer: Its IC50 is 10 nM.

Question: And the Ki [2]?
Answer: The Ki was 9.3 nM.

Question: For `CCNn1c(CN2CCCC2=O)c(C(=O)N[C@H](c2cccc(F)c2)C2CC2)c2cccc(F)c2c1=O` [Example 2r, 2-Ethylamino-8-fluoro-1-oxo-3-(2-oxo-pyrrolidin-1-ylmethyl)-1,2-dihydro-isoquinoline-4-carboxylic acid [(S)-cyclopropyl-(3-fluoro-phenyl)-methyl]-amide], which Ki [2] is on record?
Answer: The Ki was 6.8 nM.

Question: With `CCCNn1c(C)c(C(=O)N[C@H](c2cccc(F)c2)C2CC2)c2cccc(F)c2c1=O` [Example 2q, 8-Fluoro-3-methyl-1-oxo-2-propylamino-1,2-dihydro-isoquinoline-4-carboxylic acid [(S)-cyclopropyl-(3-fluoro-phenyl)-methyl]-amide] as the molecule, how does the Ki [2] read?
Answer: Its Ki is 7.4 nM.

Question: For `CCOn1c(C)c(C(=O)N[C@H](c2cccc(F)c2)C2CCC2)c2cccc(F)c2c1=O` [Example 4t, 2-Ethoxy-8-fluoro-3-methyl-1-oxo-1,2-dihydro-isoquinoline-4-carboxylic acid [(S)-cyclobutyl-(3-fluoro-phenyl)-methyl]-amide], which IC50 [1] is on record?
Answer: Its IC50 is 180 nM.

Question: What about the Ki [2] of the same molecule?
Answer: Its Ki is 68 nM.

Question: What does the source list for `Cc1c(C(=O)N[C@H](c2cccc(F)c2)C2CC2)c2cccc(F)c2c(=O)n1[C@@H]1CCN(C)C1` [Example 7i, 8-Fluoro-3-methyl-2-((R)-1-methyl-pyrrolidin-3-yl)-1-oxo-1,2-dihydro-isoquinoline-4-carboxylic acid [(S)-cyclopropyl-(3-fluoro-phenyl)-methyl]-amide]?
Answer: IC50 [1]: 660 nM; Ki [2]: 90 nM
